These molecules were tested against APJ receptor (Homo sapiens (Human), UniProt P35414) (assay: [35S]GTPγS binding assay on membranes from CHO cells stably expressing human APJ receptor). Conditions: membranes of CHO cells stably expressing human APJ receptor, means of several independent experiments, read-out: Activity hAPJ SPA EC50 IP.
Assay type: biochemical
How it was run: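 Membranes from CHO cells stably expressing human APJ were incubated with 0.2 nM [35S]GTPγS and ligands for 90 min at RT in 20 mM HEPES pH 7.5, 5 mM MgCl2, 200 mM NaCl, 3 μM GDP, 0.1% BSA with WGA PS beads. Nonspecific binding was set with 100 μM GTPγS. EC50 came from non-linear regression.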

Sequence of APJ receptor (P35414 whole entry): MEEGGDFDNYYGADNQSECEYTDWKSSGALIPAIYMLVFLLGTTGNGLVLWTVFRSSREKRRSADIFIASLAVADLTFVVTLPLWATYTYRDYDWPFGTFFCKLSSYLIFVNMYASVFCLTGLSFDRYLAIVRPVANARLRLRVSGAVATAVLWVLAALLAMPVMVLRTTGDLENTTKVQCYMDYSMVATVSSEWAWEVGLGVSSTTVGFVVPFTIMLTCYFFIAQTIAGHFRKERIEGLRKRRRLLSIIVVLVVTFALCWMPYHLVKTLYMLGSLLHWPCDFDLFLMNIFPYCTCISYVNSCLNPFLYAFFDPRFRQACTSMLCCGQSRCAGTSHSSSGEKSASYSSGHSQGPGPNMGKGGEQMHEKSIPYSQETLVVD

Row | EC50 [nM] | Structure (SMILES)
1 | 0.74 | COc1cccc(OC)c1-n1c(NS(=O)(=O)CCN2C(=O)N(C)CC[C@@H]2C)nnc1-c1ccc(C)o1 (single isomer, unassigned) [Example 164.0, N-(4-(2,6-Dimethoxyphenyl)-5-(5-methyl-2-furanyl)-4H-1,2,4-triazol-3-yl)-2-((6S)-3,6-dimethyl-2-oxotetrahydro-1(2H)-pyrimidinyl)ethanesulfonamide or N-(4-(2,6-dimethoxyphenyl)-5-(5-methyl-2-furanyl)-4H-1,2,4-triazol-3-yl)-2-((6R)-3,6-dimethyl-2-oxotetrahydro-1(2H)-pyrimidinyl)ethanesulfonamide]
2 | 0.95 | COc1cccc(OC)c1-n1c(NS(=O)(=O)C[C@](C)(F)c2ncc(C#N)cn2)nnc1-c1ccc(C)o1 (single isomer, unassigned) [Example 245.0, (2R)-2-(5-Cyano-2-pyrimidinyl)-N-(4-(2,6-dimethoxyphenyl)-5-(5-methyl-2-furanyl)-4H-1,2,4-triazol-3-yl)-2-fluoro-1-propanesulfonamide or (2S)-2-(5-cyano-2-pyrimidinyl)-N-(4-(2,6-dimethoxyphenyl)-5-(5-methyl-2-furanyl)-4H-1,2,4-triazol-3-yl)-2-fluoro-1-propanesulfonamide]
3 | 5.9 | COc1cccc(OC)c1-n1c(NS(=O)(=O)[C@H]2COc3cc(Cl)cnc3C2)nnc1-c1ccco1 (racemic) [Example 181.0, (3R)-7-Chloro-N-(4-(2,6-dimethoxyphenyl)-5-(2-furanyl)-4H-1,2,4-triazol-3-yl)-3,4-dihydro-2H-pyrano[3,2-b]pyridine-3-sulfonamide and (3S)-7-chloro-N-(4-(2,6-dimethoxyphenyl)-5-(2-furanyl)-4H-1,2,4-triazol-3-yl)-3,4-dihydro-2H-pyrano[3,2-b]pyridine-3-sulfonamide]
4 | 0.16 | COc1cccc(OC)c1-n1c(NS(=O)(=O)[C@@H](C)[C@@H](O)c2ccc(F)cn2)nnc1-c1ccc(C)o1 (single isomer, unassigned) [Example 59.0]
5 | 5.5 | COc1cccc(OC)c1-n1c(NS(=O)(=O)[C@H](C)[C@@H](O)c2ccnc3c2OCCC3)nnc1-c1ccc(C)o1 (single isomer, unassigned) [Example 293.0, (1R,2S)-1-(3,4-Dihydro-2H-pyrano[3,2-b]pyridin-8-yl)-N-(4-(2,6-dimethoxyphenyl)-5-(5-methyl-2-furanyl)-4H-1,2,4-triazol-3-yl)-1-hydroxy-2-propanesulfonamide or (1S,2R)-1-(3,4-dihydro-2H-pyrano[3,2-b]pyridin-8-yl)-N-(4-(2,6-dimethoxyphenyl)-5-(5-methyl-2-furanyl)-4H-1,2,4-triazol-3-yl)-1-hydroxy-2-propanesulfonamide]
6 | 0.2 | COc1cccc(OC)c1-n1c(NS(=O)(=O)[C@@H](C)Cc2ccc(Cl)cn2)nnc1-c1ccco1 (racemic) [Example 14.0, (2R)-1-(5-chloro-2-pyridinyl)-N-(4-(2,6-dimethoxyphenyl)-5-(2-furanyl)-4H-1,2,4-triazol-3-yl)-2-propanesulfonamide and (2S)-1-(5-chloro-2-pyridinyl)-N-(4-(2,6-dimethoxyphenyl)-5-(2-furanyl)-4H-1,2,4-triazol-3-yl)-2-propanesulfonamide]
7 | 180 | COc1cccc(OC)c1-n1c(NS(=O)(=O)[C@@H]2CC[C@@H](O)[C@H](O)C2)nnc1-c1ccc(C)o1 (single isomer, unassigned) [Example 407.0]
8 | 61 | COc1cccc(OC)c1-n1c(NS(=O)(=O)[C@H](C)[C@H](O)c2cscn2)nnc1-c1ccc(C)o1 (single isomer, unassigned) [Example 309.0, (1S,2S)—N-(4-(2,6-Dimethoxyphenyl)-5-(5-methyl-2-furanyl)-4H-1,2,4-triazol-3-yl)-1-hydroxy-1-(1,3-thiazol-4-yl)-2-propanesulfonamide or (1R,2R)—N-(4-(2,6-dimethoxyphenyl)-5-(5-methyl-2-furanyl)-4H-1,2,4-triazol-3-yl)-1-hydroxy-1-(1,3-thiazol-4-yl)-2-propanesulfonamide]
9 | 0.39 | COc1cccc(OC)c1-n1c(NS(=O)(=O)[C@@H](C)[C@H](O)c2ccc(Cl)cc2S(C)(=O)=O)nnc1-c1ccc(C)o1 (single isomer, unassigned) [Example 157.0, (1R,2S)-1-(4-Chloro-2-(methylsulfonyl)phenyl)-N-(4-(2,6-dimethoxyphenyl)-5-(5-methyl-2-furanyl)-4H-1,2,4-triazol-3-yl)-1-hydroxy-2-propanesulfonamide or (1S,2R)-1-(4-chloro-2-(methylsulfonyl)phenyl)-N-(4-(2,6-dimethoxyphenyl)-5-(5-methyl-2-furanyl)-4H-1,2,4-triazol-3-yl)-1-hydroxy-2-propanesulfonamide]

Row | Structure (SMILES) | EC50 [nM]
10 | COc1cccc(OC)c1-n1c(NS(=O)(=O)[C@H]2C[C@@H](O)CN(c3ncc(F)cc3C#N)C2)nnc1-c1ccc(C)o1 (mixture of isomers) [Example 330.0, (3S,5R)-1-(3-Cyano-5-fluoro-2-pyridinyl)-N-(4-(2,6-dimethoxyphenyl)-5-(5-methyl-2-furanyl)-4H-1,2,4-triazol-3-yl)-5-hydroxy-3-piperidinesulfonamide and (3R,5S)-1-(3-cyano-5-fluoro-2-pyridinyl)-N-(4-(2,6-dimethoxyphenyl)-5-(5-methyl-2-furanyl)-4H-1,2,4-triazol-3-yl)-5-hydroxy-3-piperidinesulfonamide] | 0.43
11 | COc1ncnc(OC)c1-n1c(NS(=O)(=O)[C@@H](C)[C@H](C)c2ncc(F)cn2)nnc1-c1ccc(C)o1 [Example 393.0, (2S,3R)-N-(4-(4,6-dimethoxy-5-pyrimidinyl)-5-(5-methyl-2-furanyl)-4H-1,2,4-triazol-3-yl)-3-(5-fluoro-2-pyrimidinyl)-2-butanesulfonamide] | 0.28
12 | COc1cccc(OC)c1-n1c(NS(=O)(=O)CCc2ncc(Cl)cc2N2CCC2=O)nnc1-c1ccco1 [Example 27.0, 2-(5-chloro-3-(2-oxo-1-azetidinyl)-2-pyridinyl)-N-(4-(2,6-dimethoxyphenyl)-5-(2-furanyl)-4H-1,2,4-triazol-3-yl)ethanesulfonamide] | 0.46
13 | COCCO[C@H](c1ncc(C)cn1)[C@H](C)S(=O)(=O)Nc1nnc(-c2ccc(C)o2)n1-c1c(OC)cccc1OC [Example 120.0, (1R,2S)—N-(4-(2,6-Dimethoxyphenyl)-5-(5-methylfuran-2-yl)-4H-1,2,4-triazol-3-yl)-1-(2-methoxyethoxy)-1-(5-methylpyrimidin-2-yl)propane-2-sulfonamide] | 0.15
14 | COc1cccc(OC)c1-n1c(NS(=O)(=O)C[C@@H](C)c2ncc(F)cn2)nnc1-c1ccco1 (mixture of isomers) [Example 129.0, (S)-N-(4-(2,6-dimethoxyphenyl)-5-(furan-2-yl)-4H-1,2,4-triazol-3-yl)-2-(5-fluoropyrimidin-2-yl)propane-1-sulfonamide and (R)-N-(4-(2,6-dimethoxyphenyl)-5-(furan-2-yl)-4H-1,2,4-triazol-3-yl)-2-(5-fluoropyrimidin-2-yl)propane-1-sulfonamide] | 3.3
15 | COc1cccc(OC)c1-n1c(NS(=O)(=O)[C@H](C)[C@H](O)c2cccc(Cl)n2)nnc1-c1ccc(C)o1 (stereo in doubt) [Example 85.0] | 0.17

Reference: US10736883B2, “Triazole furan compounds as agonists of the APJ receptor” (AMGEN INC., priority 2016, dated 2020)
